How the values were obtained:
[1] = tested on: yeast and aspergillus species; assay: Minimum Inhibitory Concentration (MIC) assay, yeast and filamentous fungi; format: cell-based, Candida albicans; Aspergillus fumigatus; details: antifungal; complete inhibition of visible growth, 48 h at 35 C
Description: (§1) These assays are adapted from NCCLS protocols M7-A4 and M27-A (NCCLS vol 17:9 and vol 17:2) as modified by Sandven, S. Clin. Micro. (1999) 37:12, p. 3856–3859. MIC values for Aspergillus fumigatus were determined using NCCLS protocol M38-P.
(§2) All compounds were dissolved in 100% DMSO to a stock concentration of 10 mM and use fresh or stored at −80° C. Stock compounds were kept frozen until needed and used freshly with no more then one freeze-thaw cycle. When used for test purposes, compounds were diluted in the appropriate media depending on the organism being tested.
(§3) For yeast and aspergillus species, seven 1:2 serial dilutions of compound in appropriate media buffered with MOPS at pH 7.0 were prepared such that the final starting test compound concentrations were 50.0 uM for yeast and 50 uM aspergillus species. For bacteria, dilutions were made in growth media used for the particular bacteria being tested.
Five well-separated colonies from a 24 hr Sabouraud Dextrose plate incubated at 35 C were picked and resuspended into 5.0 ml of normal saline. The O.D.530 was read and the culture was adjusted to 0.5 McFarland units with normal saline. A 1:2000 dilution was made with RPMI 1640 media buffered with MOPS at pH 7.0 and 100 μL of this inoculum preparation was added to an equal volume of test compound-containing media. 25 μL of the redox indicator Alamar Blue (Biosource International) was added to each well and the plates were incubated for 48 h at 35 C. Wells having yeast growth changed color from blue to pink.
Inoculums are made by incubating Aspergillus fumigatus for 7 days at 35 C on potato dextrose agar slants. Slants are then covered with 1.0 ml of 0.85% saline, one drop of Tween 20 is added and colonies are teased with a sterile transfer loop to create a suspension which is allowed to sit for 5 min so heavier particles can drop out. The upper suspension is separated and adjusted to an optical density of 0.09 to 0.11. The resulting suspension is diluted 1:50 which yields 2× the final inoculum needed. Micro dilution trays are prepared as with yeast and incubated for 48 h at 35 C. For our purposes the MIC is defined as the lowest compound concentration at which no visible growth is observed after 48 h.

bacteria = assay: Minimum Inhibitory Concentration (MIC) assay, bacteria; format: cell-based; details: antibacterial; complete inhibition of visible growth
Description: as §1, §2, §3
Inoculums are made in the same manner as yeast except all dilutions are made in normal saline, with a final dilution of 1:200 and an inoculum of 10 μL.

Row | SMILES | MIC [1] | MIC (bacteria)
1 | N=C(N)CNC(=O)c1cc(NC(=O)c2ccc(C(=O)Nc3cc(C(=O)NCC(=N)N)n(CC4CC4)c3)cc2)cn1CC1CC1 [Compound 284, N,N′-Bis-[5-(carbamimidoylmethylcarbamoyl)-1-cyclopropylmethyl-1H-pyrrol-3-yl]-terephthalamide] | < 45.5 µM | < 45.5 µM
2 | N=C(N)CNC(=O)c1cc(NC(=O)C2=CC=C(C(=O)Nc3cc(C(=O)NCC(=N)N)n(CC4CC4)c3)CC2)cn1CC1CC1 [Compound 294, Cyclohexa-1,3-diene-1,4-dicarboxylic acid bis-{[5-(carbamimidoylmethyl-carbamoyl)-1-cyclopropylmethyl-1H-pyrrol-3-yl]-amide}] | < 45.5 µM | < 45.5 µM
3 | CCCCn1cc(NC(=O)c2ccc(C(=O)Nc3cc(C(=O)NCC(=N)NC)n(CCCC)c3)cc2)cc1C(=O)NCC(=N)NC [Compound 289, N,N′-Bis-[1-butyl-5-(methylcarbamimidoylmethyl-carbamoyl)-1H-pyrrol-3-yl]terephthalamide] | < 45.5 µM | < 45.5 µM
4 | CCCCn1cc(NC(=O)c2ccc(C(=O)Nc3cc(C(=O)NCC(=N)NCC)n(CCCC)c3)cc2)cc1C(=O)NCC(=N)NCC [Compound 290, N,N′-Bis-[1-butyl-5-(ethylcarbamimidoylmethyl-carbamoyl)-1H-pyrrol-3-yl]terephthalamide] | < 45.5 µM | < 45.5 µM
5 | N=C(N)CNC(=O)c1cc(NC(=O)c2cc(C(=O)Nc3cc(C(=O)NCC(=N)N)n(CC4CC4)c3)[nH]n2)cn1CC1CC1 [Compound 295, 1H-Pyrazole-3,5-dicarboxylic acid bis-{[5-(carbamimidoylmethyl-carbamoyl)-1-cyclopropylmethyl-1H-pyrrol-3-yl]-amide}] | < 45.5 µM | < 45.5 µM
6 | N=C(N)CNC(=O)c1cc(NC(=O)c2ccc(C(=O)Nc3cc(C(=O)NCC(=N)N)n(CC4CC4)c3)nc2)cn1CC1CC1 [Compound 292, Pyridine-2,5-dicarboxylic acid bis{[5-(carbamimidoylmethyl-carbamoyl)-1-cyclopropylmethyl-1H-pyrrol-3-yl]-amide}] | < 45.5 µM | < 45.5 µM
7 | N=C(N)CNC(=O)c1cc(NC(=O)c2cnc(C(=O)Nc3cc(C(=O)NCC(=N)N)n(CC4CC4)c3)cn2)cn1CC1CC1 [Compound 293, Pyrazine-2,5-dicarboxylic acid bis-{[5-(carbamimidoylmethyl-carbamoyl)-1-cyclopropylmethyl-1H-pyrrol-3-yl]-amide}] | < 45.5 µM | < 45.5 µM
8 | CCCCn1cc(NC(=O)c2ccc(C(=O)Nc3cc(C(=O)NCC(=N)N)n(CCCC)c3)cc2)cc1C(=O)NCC(=N)N [Compound 287, N,N′-Bis-[1-butyl-5-(carbamimidoylmethyl-carbamoyl)-1H-pyrrol-3-yl]terephthalamide] | < 45.5 µM | < 45.5 µM
